This is an account of results in PMC4382154, “Screening of the Pan-African Natural Product Library Identifies Ixoratannin A-2 and Boldine as Novel HIV-1 Inhibitors” (PLoS ONE, 2015).

One data set deals with hERG potassium channel. On the set-up: method as in PMID 24963621. As to conditions: two electrode voltage clamp, Xenopus oocytes; read-out: IC50 hERG potassium channel currents; cited from earlier work. In general terms: In two-electrode clamp one electrode senses voltage and the other passes current.
Another data set relates to HIV-1Δvpu. Nature of the data set: HIV-1Δvpu replication in CEM-GXR cells. It counts as cell-based. The settings on record: for fold less effective at inhibiting HIV-1Δvpu compared to HIV-1NL4-3: 75 μM, CEM-GXR cells; for EC50: Human immunodeficiency virus 1, CEM-GXR, 96 h, read-out: EC50 HIV-1Δvpu. As to the method:
HIV-1Δvpu was constructed by digesting plasmid p210-13 3’ Δ-vpu with EcoRI and NheI enzymes. The resulting DNA fragment was then ligated into wild-type pNL4-3 plasmid digested with the same enzymes. HIV-1Δvpu and HIV-1NL4-3 viral stocks were prepared by transfection of HEK-293T cells, as previously described. Patient plasma-HIV-1 RNA sequences were analyzed for resistance mutations using the HIV Drug Resistance Database Genotype Resistance Interpretation Algorithm (hivdb.stanford.edu). Recombinant HIV-1NL4-3 expressing patient-derived HIV-1 sequences harboring resistance mutations to protease and reverse transcriptase inhibitors (HIV-1PR+RT), reverse transcriptase inhibitors (HIV-1RT), and integrase inhibitors (HIV-1INT) were generated by homologous recombination following co-transfection as reported.
CEM-GXR cells are an immortalized CD4+ T-lymphocyte line engineered that naturally express the HIV-1 coreceptor CXCR4 and have been further engineered to express the HIV-1 co-receptor CCR5 and a Tat-driven LTR-GFP expression cassette. As such, intracellular GFP expression indicates HIV-1 infection. Cultures of 10^5 CEM-GXR cells were seeded into 96-well plates with RPMI-1640 media (Sigma) supplemented with penicillin/streptomycin plus 20% fetal calf serum (R20+), infected with HIV-1 at a multiplicity of infection of 0.03 (to achieve 3% infected cells on Day 2), and incubated at 37°C and 5% CO2. 24 hours later, cells were pelleted at 750 g and resuspended in R20+ containing compound or 0.1% DMSO. […] Cells were then incubated at 37°C and 5% CO2 for an additional 72 h. 5,000 cells from each culture were measured for cell toxicity and GFP expression by flow cytometry. Flow cytometry data were analyzed using FlowJo v. 8.8.7 software (FlowJo LLC, Ashland, OR). […] Background GFP expression in uninfected cultures was set at 0.05% GFP-positive cells. For each experiment, all data points were obtained in triplicate. All data are reported as the mean ± s.e.m. from at least 3 independent experiments performed with different virus stocks and/or performed on different days. However, all experiments that compare HIV-1NL4-3 and mutant HIV-1 were performed in parallel. EC50 and CC50 values for each compound were calculated from at least four concentrations. Statistical analyses were performed using Student’s unpaired t test, with a p value < 0.05 plus a Bonferroni correction to adjust for multiple comparisons considered significant.
To investigate the mechanisms by which ixoratannin A-2 and boldine may block HIV-1 replication, we used a previously-reported HIV-1NL4-3 strain lacking the Vpu coding region (HIV-1Δvpu). We also constructed recombinant HIV-1NL4-3 strains harboring protease, reverse transcriptase, and/or integrase sequences of HIV-1 strains from patients who had developed resistance to the protease inhibitor Indinavir (IND), the non-nucleoside reverse transcriptase inhibitor Efavirenz (EFV), and/or the integrase inhibitor Raltegravir (RAL) (denoted HIV-1PR+RT, HIV-1RT, and HIV-1INT, respectively). Re-sequencing of the recombinant viruses confirmed the presence of multiple mutations known to confer resistance to IND, EFV, and/or RAL (Table 2).

Data set [1] deals with HCV J4(1b)/JFH1(2a) chimera. Nature of the data set: HCV replication assay in Huh-7.5 cells (NS5A flow cytometry). It is filed as cell-based. The settings on record: Hepatitis C virus, Huh7.5, 72 h. How it is done:
The intergenotypic chimeric HCV used in this study—Bi-Gluc-J4(1b)/JFH1(2a) containing cell culture adaptive mutations in NS2 (T2996C) and NS3 (A4827T)—was previously described and subsequently modified to express Gaussia luciferase in the first cistron. HCV stocks used for infection were generated by electroporation of in vitro transcribed RNA into Huh-7.5.1 cells and pooling of supernatants harvested between 60–96 hr post-electroporation. HCV infectivity was determined by limiting dilution assay as previously described.
HCV cell culture was performed as described previously. Briefly, 4*10^4 Huh-7.5 cells were seeded into 24-well plates and incubated at 37°C and 5% CO2 overnight. Cells were then infected with HCV (multiplicity of infection = 0.3) for 6 hours, followed by removal of HCV and incubation with fresh medium containing compounds at stated concentrations. Cultures were then incubated for 72 hours, with no more than 0.1% DMSO present in culture medium. Cells were then trypsinized, resuspended in culture medium, and stained with the 9E10 alexa-fluor-conjugated antibody to NS5A [27]. Cells were fixed and analyzed for NS5A fluorescence by flow cytometry, and data were analyzed using FlowJo software. […] For each culture, NS5A fluorescence was determined as the percent gated cells relative to percent gated cells in infected cultures plus 0.1% DMSO. All experiments were performed in at least duplicate in at least two independent experiments.
We therefore assessed the effects of ixoratannin A-2, boldine, and BIT-225 on replication of HCV, which also encodes a viral ion channel and protease. Using an established cell culture system, Huh-7.5 cells were infected with an intergenotypic chimera between the J4 (genotype 1b) and JFH1 (genotype 2a) strain of HCV for 6 hours, followed by incubation with fresh medium containing compounds at defined concentrations. Infected cells were then incubated for an additional 72 hours. NS5A expression, a marker of HCV infection, was then detected by flow cytometry.
Background: A flow cytometer gives signals particle by particle.

The nature of data set [2]: PBMC cytotoxicity (ViaCount Assay). It is filed as cell-based. As to conditions: human, all assessed concentrations, read-out: PBMC viability relative to PBMCs in 0.1% DMSO. How it is done: Cytotoxicity was determined by ViaCount Assay (Millipore). Briefly, Day 3 PHA-activated PBMCs (3*10^5) were cultured in R10+ supplemented with 100 units/mL human IL-2 in the presence of 0.1% DMSO or compounds at defined concentrations. At Day 5, 15 μL of each PBMC culture was mixed with Guava ViaCount Reagent at a 1:10 dilution. Data were collected using a Guava EasyCyte HT Flow Cytometer (Millipore).

Setting [3] is: read-out: inhibition of HCV replication.

Read-outs that look alike come from different tables or passages of the source.

Turning to `COc1cc2c(cc1O)C[C@H]1c3c(cc(O)c(OC)c3-2)CCN1C` [boldine], the IC50 – broadly, the concentration needed to halve the response being measured – in the data set with hERG potassium channel was 19.3 µM. In the data set with HIV-1Δvpu, the “fold less effective at inhibiting HIV-1Δvpu compared to HIV-1NL4-3” value was 1.3 fold and the EC50 (commonly the concentration at which the effect is half-maximal) is over 100 µM. For the same compound, the inhibition (commonly the change of the read-out against control, counted positive when it falls) at 50 µM in data set [1] (setting [3]) is 36%. Besides, the viability (in general, a per cent measure of how many cells are alive, often set against a control) in data set [2] is over 85%.
As to `Oc1cc(O)c2c(c1)OC1(c3ccc(O)c(O)c3)Oc3c4c(c5c(c3C2C1O)OC1(c2ccc(O)c(O)c2)Oc2cc(O)cc(O)c2C5C1O)OC(c1ccc(O)c(O)c1)C(O)C4` (stereo not shown) [ixoratannin A-2], in the data set on HIV-1Δvpu, the “fold less effective at inhibiting HIV-1Δvpu compared to HIV-1NL4-3” value is on record as 1.4 fold and the EC50 was 52 µM. The EC50 in data set [1] (read-out: EC50 HCV replication) came out at 23 µM. The inhibition at 30 µM in data set [1] (setting [3]) was over 50%. The viability in data set [2] (PHA-activated PBMCs) was over 85%.
